One data set relates to ddy mice. The data set can be described thus: Toxicity test, oral, mice. The note with it: orally, 100 mg/kg, 6-week old male ddy mice, eight animals. The class given is in vivo. The method, then:
Each of the present compounds synthesized in Examples 1 and 2 were orally administered to 6-week old male ddy mice (CHARLES RIVER JAPAN) at 100 mg/kg. […] The other compounds, which achieved the same results, were also shown to have a low toxicity.

The target in another data set is T1, human β3 (Homo sapiens, UniProt P13945).
T1 construct: used as a probe to obtain the full length human β3 gene from a human genomic library; expressed in transfected cells; host or cells: CHO (Chinese hamster ovary) cells, pcDNA3 vector
Description: Human β3-agonist activities (cAMP in transfected CHO cells). The note with it: for EC50: CHO cells expressing human β3, cAMP, 30 minutes; for Emax: CHO, read-out: Intrinsic activity*. It counts as cell-based. The procedure:
Human β3-Agonist Activities
Human β3-agonist activities were determined using CHO (Chinese hamster ovary) cells transfected with pcDNA3 (mfd. by Invitrogen) to which human β3 gene had been inserted. Human β3 fragment was first obtained from human adipose tissue cDNA (mfd. by Clonetech) by PCR using the primer of β3 (Krief, et al., J. Clin. Invest., vol. 91, pp. 344-349 (1993)). The human β3 fragment thus obtained was used as a probe to obtain the full length human β3 gene from a human genomic library (mfd. by Clonetech). The above cells were cultured in a Ham F-12 medium supplemented with 10% fetal bovine serum, 400 μg/mL geneticin (Gibco BRL), 100 U/mL penicillin and […] streptomycin. After placing these cells (5×10^5) into a 6-well plate and culturing them for 24 hours, they were allowed to stand on a serum-free Ham F-12 medium for 2 hours. The compound was first dissolved in DMSO, repeatedly diluted by ten times with Ham F-12 supplemented with 1 mM isobutylmethyl-xanthine and 1 mM ascorbic acid to a final concentration of from 10^−5 to 10^−12 M, and then added to the cells. After the cells were cultured for 30 minutes, the medium was removed, followed by addition of 0.5 mL of 1 N NaOH. The medium was allowed to stand for 20 minutes and then 0.5 mL of 1 N acetic acid was added to the medium. The medium was stirred and then centrifuged, followed by quantitating cAMP with cAMP EIA kit (mfd. by Cayman). Isoproterenol was purchased from RBI (Research Biochemicals International).

[1] abbreviates: Relative activities (%) as compared with isoproterenol.

The values that follow come from patent publication US7271190B2, “Indazole compounds as β3 adrenoceptor agonist” (Asahi Kasei Pharma Corporation, priority 2001, dated 2007).

The structures appear in SMILES notation. Counter-ions that a name gives are not always drawn.

T1 sequence (P13945 whole entry): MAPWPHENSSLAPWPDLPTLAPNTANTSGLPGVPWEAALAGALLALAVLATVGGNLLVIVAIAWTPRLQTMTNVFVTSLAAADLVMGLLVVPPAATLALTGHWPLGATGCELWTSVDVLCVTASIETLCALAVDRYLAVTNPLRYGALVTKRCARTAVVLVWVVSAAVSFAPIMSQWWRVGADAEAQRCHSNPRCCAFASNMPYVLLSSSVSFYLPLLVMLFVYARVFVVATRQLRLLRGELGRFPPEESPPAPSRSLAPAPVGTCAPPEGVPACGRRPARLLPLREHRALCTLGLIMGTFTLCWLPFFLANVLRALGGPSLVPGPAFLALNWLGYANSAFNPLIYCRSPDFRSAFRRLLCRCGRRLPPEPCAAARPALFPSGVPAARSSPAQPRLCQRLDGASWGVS

Broadly, the EC50 is the concentration that produces a half-maximal response. Read a low EC50 as higher potency in that assay. With `CCOC(=O)c1[nH]c2cc(OCCNC[C@H](O)c3cccc(NS(C)(=O)=O)c3)ccc2c1C` [Example 1, ethyl (R)-6-[2-[2-(3-methylsulfonylamino)phenyl-2-hydroxyethylamino]ethoxy]-3-methyl-1H-indole-2-carboxylate hydrochloride], in the data set on ddy mice, the animals found dead result is “none of the eight animals were found to be dead”. The compound also returned a 50% effective concentration (EC50) on human β3 of 15 nM. Also, the Emax at human β3 (setting [1]) was found to be 97%.
As for `Cc1c(C(=O)O)[nH]c2cc(OCCNC[C@H](O)c3cccc(NS(C)(=O)=O)c3)ccc12` [Example 2, (R)-6-[2-[2-(3-methylsulfonylamino)phenyl-2-hydroxyethylamino]ethoxy]-3-methyl-1H-indole-2-carboxylic acid], the animals found dead entry with ddy mice is “none of the eight animals were found to be dead”. On human β3, this compound gave a 50% effective concentration (EC50) of 18 nM. On human β3 (setting [1]), the Emax came out at 124%.
For `CCOC(=O)CCc1c(C)[nH]c2cc(OCCNC[C@H](O)c3cccc(NS(C)(=O)=O)c3)ccc12` [Example 13, ethyl (R)-3-[6-[2-[2-(3-methylsulfonylamino)phenyl-2-hydroxyethylamino]ethoxy]-2-methyl-1H-indol-3-yl]propionate], the midpoint of the response on human β3, the EC50, lay at 23 nM. For the same compound, at human β3 (setting [1]), the Emax was 38%.
As for `CCOC(=O)CCc1c(CC)[nH]c2cc(OCCNC[C@H](O)c3cccc(NS(C)(=O)=O)c3)ccc12` [Example 20], the midpoint of the response on human β3, the EC50, lay at 32 nM. Also, on human β3 (setting [1]), the Emax came out at 55%.
On human β3, `Cc1c(-c2cccnc2)[nH]c2cc(OCCNC[C@H](O)c3cccc(NS(C)(=O)=O)c3)ccc12` [Example 72, (R)-N-[3-[1-hydroxy-2-[2-(3-methyl-2-pyridin-3-yl-1H-indol-6-yloxy)ethylamino]ethyl]phenyl]methanesulfonamide] showed a half-maximal effective concentration (EC50) of 2.8 nM. Besides, the Emax on human β3 (setting [1]) turned out to be 105%.
`CCc1c(-c2cccnc2)[nH]c2cc(OCCNC[C@H](O)c3cccc(NS(C)(=O)=O)c3)ccc12` [Example 73, (R)-N-[3-[2-[2-(3-ethyl-2-pyridin-3-yl-1H-indol-6-yloxy)ethylamino]-1-hydroxyethyl]phenyl]methanesulfonamide] gave an EC50 on human β3 of 3.5 nM. For the same compound, on human β3 (setting [1]), the Emax was determined as 75%.
For `Cc1c(-c2ccncc2)[nH]c2cc(OCCNC[C@H](O)c3cccc(NS(C)(=O)=O)c3)ccc12` [Example 74, (R)-N-[3-[1-hydroxy-2-[2-(3-methyl-2-pyridin-4-yl-1H-indol-6-yloxy)ethylamino]ethyl]phenyl]methanesulfonamide] the same measures were 3.9 nM and 71%.
`Cc1c(C2CCCN(C(=O)OC(C)(C)C)C2)[nH]c2cc(OCCNC[C@H](O)c3cccc(NS(C)(=O)=O)c3)ccc12` (stereo partly drawn) [Example 75, (R)-N-[3-[2-[2-[2-(N′-t-butyloxycarbonylpiperidin-3-yl)-3-methyl-1H-indol-6-yloxy]ethylamino]-1-hydroxyethyl]phenyl]methanesulfonamide]: the response at human β3 was half-maximal at 4.4 nM (EC50). Besides, the Emax at human β3 (setting [1]) stood at 79%.
Regarding `Cc1c(C2CCCNC2)[nH]c2cc(OC[C@@H](O)NCCc3cccc(NS(C)(=O)=O)c3)ccc12` (stereo partly drawn) [Example 76, (R)-N-[3-[2-[1-hydroxy-2-(3-methyl-2-piperidin-3-yl-1H-indol-6-yloxy)ethylamino]ethyl]phenyl]methanesulfonamide], on human β3, a half-maximal effect (EC50) was put at 21 nM. Moreover, the “Intrinsic activity*” value on human β3 (setting [1]) came to 76%.
For `Cc1c(-c2cccnc2)[nH]c2cc(OCCNC[C@H](O)c3ccc(F)c(NS(C)(=O)=O)c3)ccc12` [Example 79, (R)-N-[2-fluoro-5-[1-hydroxy-2-[2-(3-methyl-2-pyridin-3-yl-1H-indol-6-yloxy)ethylamino]ethyl]phenyl]methanesulfonamide], it took 3.4 nM to reach a half-maximal effect on human β3 (EC50). Also, on human β3 (setting [1]), the Emax was determined as 65%.
At human β3, `CCOC(=O)CCc1[nH]c2cc(OCCNC[C@H](O)c3ccc(F)c(NS(C)(=O)=O)c3)ccc2c1C` [Example 80, ethyl (R)-3-[6-[2-[2-(4-fluoro-3-methylsulfonylaminophenyl)-2-hydroxyethylamino]ethoxy]-3-methyl-1H-indol-2-yl]propionate] had an EC50 of 2.8 nM. For the same compound, the Emax at human β3 (setting [1]) was 63%.
Consider `Cc1c(CCC(=O)N(C)C)[nH]c2cc(OCCNC[C@H](O)c3cccc(NS(C)(=O)=O)c3)ccc12` [Example 81], for which, at human β3, the concentration giving a half-maximal response (EC50) was 2.8 nM. Moreover, the Emax at human β3 (setting [1]) is 77%.
On to `CCOC(=O)CCc1[nH]c2cc(OCCNC[C@H](O)c3cccc(NS(C)(=O)=O)c3)ccc2c1C` [Example 82, ethyl (R)-3-[3-methyl-6-[2-[2-(3-methylsulfonylaminophenyl)-2-hydroxyethylamino]ethoxy]-1H-indol-2-yl]propionate], for which the concentration giving a half-maximal response (EC50) on human β3 was found to be 1.4 nM. Also, the Emax at human β3 (setting [1]) is 81%.
In turn, `Cc1n[nH]c2cc(OCCNC[C@H](O)c3cccc(NS(C)(=O)=O)c3)ccc12` [Example 84, (R)-N-[3-[2-[2-(3-methylindazol-6-yloxy)ethylamino]-1-hydroxyethyl]phenyl]methanesulfonamide hydrochloride] displayed a 50% effective concentration (EC50) on human β3 of 12 nM. Also, on human β3 (setting [1]), the Emax came to 81%.
On human β3, `COc1n[nH]c2cc(OCCNC[C@H](O)c3cccc(NS(C)(=O)=O)c3)ccc12` [Example 86, (R)-N-[3-[2-[2-(3-methoxyindazol-6-yloxy)ethylamino]-1-hydroxyethyl]phenyl]methanesulfonamide] displayed an EC50 of 26 nM. The Emax on human β3 (setting [1]) was determined as 64%.
The like results for `Cc1n[nH]c2cc(OCCNC[C@H](O)c3ccc(Cl)c(NS(C)(=O)=O)c3)ccc12` [Example 88, (R)-N-[5-[2-[2-(3-methylindazol-6-yloxy)ethylamino]-1-hydroxyethyl]-2-chlorophenyl]methanesulfonamide] were, in that order, 4.7 nM and 52%.
For `CNS(=O)(=O)c1cc([C@@H](O)CNCCOc2ccc3c(C)n[nH]c3c2)ccc1O` [Example 89, (R)-N-methyl-[5-[2-[2-(3-methylindazol-6-yloxy)ethylamino]-1-hydroxyethyl]-2-hydroxyl]benzenesulfonamide] the same measures were 11 nM and 80%.
